Measured values taken from US8889902B2, “Acetylsalicylic acid salts” (priority 2009, dated 2014).

Tests used:
[1] = system: rat ear skin temperature; test: Ear skin temperature rise caused by NA, s.c. administration; assay type: in vivo, Wistar rats; conditions: LA 0.3 mg/kg s.c. alone
Description: Male Wistar rats (280-330 g) were used. Animals were held in groups of 6 in climatized rooms at 22±1° C., relative humidity 60±5%, and 12/12-hour light/dark cycle with free access to drinking water and feed (R3—Lactamin AB, Sweden). For registration of changes in skin temperature of intact rats contactless temperature recording method was used (Papaliodis D et al, Br J Pharmacol 2008; 153:1382-1387). Temperature measurements were performed with a hand-held infrared thermometer (Model Proscan 510, TFA-Dostman). Animals were habituated to handling and to the infrared probe for 3 days before use. Temperature readings from the dorsal side of each ear were recorded without anaesthesia at beginning and during experiment. The ear temperature was measured every 5 min. for a period of up to 60 min. The animals were returned to their cages between measurements. NA, MD and MASA were dissolved in saline and pH was corrected immediately before usage. LA (MK 0524, Cayman Chemicals) was first dissolved in DMSO and then freshly diluted with 0.9% NaCl, on each day of the experiment. The rate of NA and LA combination was based on Summary of Product Characteristics for Tredaptive™ (nicotinic acid/laropiprant) 1000 mg/20 mg modified-release tablets.
The influence of LA, MD or MASA alone on skin temperature was checked. Each investigated compound was introduced s.c. simultaneously with NA as LA+NA [0] or 30 min in advance to NA as LA+NA [30].

[2] = Solubility in water
[3] = Stability at ambient conditions
[4] = system: platelet aggregation; test: Platelet aggregation ex vivo after 3 days treatment; assay type: in vivo, rats; conditions: 5 mg/kg/d p.o. 3 days
Description: Platelet aggregation was studied using whole blood impedance aggregometry on Multiplate (Multiple Platelet Function Analyzer, Dynabyte Medical, Germany) (Toth O et al, Thromb Haemost 2006; 96:781-788. […] Blood samples for in vitro experiment were collected from healthy donor B. […] In the ex vivo experiment blood was collected into plastic tubes covered with hirudin (Dynabyte Medical, Germany) from narcotized rats that were treated for 3 previous days with test substances p.o. The measurements were performed according to modified Dynabyte Medical protocol. […] After 5 min incubation and stirring at 37° C., measurements were initiated by adding of the appropriate agonist solution (sourced from Dynabyte Medical, Germany): After the thrombosis experiment the narcotized animals who received test substances for 3 days were used for platelet aggregation test ex vivo. […] Blood samples were used for measurement between 30 min and 4 h after collection. The measurements were performed according to modified Dynabyte Medical protocol (see above under Platelet aggregation).

[5] = system: FeCl3 induced carotid artery thrombosis; test: FeCl3 induced carotid artery thrombosis, time till occlusion; assay type: in vivo, Wistar rats; conditions: for Time till occlusion, %: control = 100
Excerpt: We chose an experimental thrombosis model based on rat arterial thrombosis induced by FeCl3 (Kurz K et al, Thromb Res 1990, 60:269-280. Wang X, Xu L, Thromb Res 2005,115:95-100). Tissue damage initiated by iron-mediated chemical oxidation predisposes the injured area to platelet adherence and aggregation followed by coagulation activation and fibrin deposition. Male Wistar rats with mass 350-420 g were used in experiments. Animals were kept in groups of 7-8 in adequate cages in climatized room at 22±1° C., relative humidity 60±5% and 12/12-hour light/darkness cycle with free access to feed and water. All experiments were carried out in accordance with the European Community Council's Directive of 24 Nov. 1986 (86/609/EEC) relative to experimental animal care. All efforts were made to minimize animal suffering and to reduce the number of animals used. Rats were randomly divided into various experimental groups, each consisting of not less than seven animals. The vehicle or test compound MD (25 mg/kg), NA (25 mg/kg), MASA (10 mg/kg), ASA (5 mg/kg) and combination MD+NA (25+25 mg/kg), MASA+NA (10+25 mg/kg) and ASA+NA (5+25 mg/kg) was administered by oral route 2 h before the initiation of thrombosis. Parallel experiments were conducted to compare the effects of a single dose of test substance (given 2 h before the initiation of thrombosis) and repeated doses (once daily for 3 days). […] Rats were anaesthetized with pentobarbital sodium (50 mg/kg, i.p. and 10 mg/kg/h) and were placed on a heat controlled operating table throughout the experiment to maintain a body temperature of 37° C. One of the carotid arteries was exposed by cervical incision, separated from the adherent tissue, vagus nerve, and a flow probe (electromagnetic blood flow meter MFV 1200, Nicon Kohden, Japan) was placed on the exposed segment of common carotid artery to record the blood flow. After a stabilization period of 15 min, thrombosis was induced by topically applying (in contact with the adventitial surface of vessel) two pieces (2×1 mm) of Whatman filter paper, soaked in 15% solution of FeCl3. Thrombosis time of carotid artery was recorded as time taken for the complete cessation of the blood flow and has been reported as time till occlusion (TTO).

[6] = system: tail bleeding; test: Tail bleeding time during thrombosis experiment; assay type: in vivo, rats; conditions: for Tail bleeding time, %: control = 100
Description: Additionally during the thrombosis experiment rat tail bleeding time was measured. The tail was transected 5 mm from the tip with scalpel and the tail was immediately immersed into 37° C. warm isotonic saline until termination of bleeding was noted. Termination of bleeding was defined as the time of complete stop of bleeding with no recurrence of bleeding within the next 30 s.

[7] = system: platelet aggregation; test: Platelet aggregation in vitro, whole blood impedance aggregometry (Multiplate); assay type: cell-based, healthy donor; conditions: 3 × 10^−4
Description: Platelet aggregation was studied using whole blood impedance aggregometry on Multiplate (Multiple Platelet Function Analyzer, Dynabyte Medical, Germany) (Toth O et al, Thromb Haemost 2006; 96:781-788. […] Blood samples for in vitro experiment were collected from healthy donor B. […] In the ex vivo experiment blood was collected into plastic tubes covered with hirudin (Dynabyte Medical, Germany) from narcotized rats that were treated for 3 previous days with test substances p.o. The measurements were performed according to modified Dynabyte Medical protocol. […] After 5 min incubation and stirring at 37° C., measurements were initiated by adding of the appropriate agonist solution (sourced from Dynabyte Medical, Germany): 1) adenosine diphosphate (ADP)-ADP-Test. ADP stimulates platelet activation by the ADP receptors (P2Y 12 and other). […] 3) ADP HS test (prostaglandin E1 in combination with ADP). […] Aggregation curves were recorded for 6 min. and analyzed using Dynabyte Medical software. We calculated the following parameters of platelet aggregation: […] It is affected by the total height of the aggregation curve as well as by its slope and is best suited to express the overall platelet activity.

[8] = 5 mg/kg/d p.o., repeated, 3 days

In the case of `CS(=O)(=O)c1cc(F)cc2c3c(n(Cc4ccc(Cl)cc4)c12)[C@@H](CC(=O)O)CC3` [LA, laropiprant], the Maximum temperature [1] was 29.5 ± 0.35^$$$ ° C.
In the case of `CC(=O)Oc1ccccc1C(=O)[O-].C[N+](C)(C)CCCC(=O)O` [Example 1, 4-trimethylammoniobutanoate Acetylsalicylic Acid Addition Salt], the “solubility in water (in words)” value [2] was “water soluble” and the “stability (in words)” value [3] was “stable at ambient conditions”.
In the case of `COC(=O)[C@H](c1ccccc1Cl)N1CCc2sccc2C1` [CL, clopidogrel], the AUC ([4]; AA induced) was 905 ± 53.5^& AU*min, the Amax ([4]; AA induced) was 160.7 ± 13.5^&@ AU and the AUC ([4]; ADP induced) was 423 ± 39.4^2& AU*min. The Amax ([4]; ADP induced) was 68.2 ± 15.1^2& AU, the AUC ([4]; PGE1 + ADP induced) was 259 ± 49.3^2& AU*min and the Amax ([4]; PGE1 + ADP induced) was 49.7 ± 9.9^3&& AU. The Time till occlusion ([5]; 5 mg/kg p.o., single dose 2 h before) was 31.7 ± 2.40^1 min, the “Time till occlusion, %” value ([5]; 5 mg/kg p.o., single dose) was 130% and the Time till occlusion [5, 8] was 49.1 ± 7.75^1 min. The “Time till occlusion, %” value [5, 8] was 194%, the Tail bleeding time ([6]; 5 mg/kg p.o., single dose) was 11.9 ± 3.62 min and the “Tail bleeding time, %” value ([6]; 5 mg/kg p.o., single dose) was 134%. The Tail bleeding time [6, 8] was 18.3 ± 3.78^1 min and the “Tail bleeding time, %” value [6, 8] was 213%.
With `OCCN(CCO)c1nc(N2CCCCC2)c2nc(N(CCO)CCO)nc(N3CCCCC3)c2n1` [DI, dipyridamole] the AUC ([7]; AA induced) was 1104 ± 45.5^&@@ AU*min, the Amax ([7]; AA induced) was 173.9 ± 5.2^&@@ AU and the AUC ([7]; ADP induced) was 665 ± 44.1^2& AU*min. For the same compound, the Amax ([7]; ADP induced) was 111.1 ± 6.9^2& AU.
